# PMC6231237 (Journal of the American Chemical Society, 2018)
# *1 amine or outer side, *2 acyl side, *3 side chain or, on linkers, in order; H or OH if unused. Where a SMILES comes first, the peptide text is derived from it. Bridges are numbered along the chain shown (N, C = ends). [ ]: non-standard residue; d: D form. Trimesoyl = O=C(c1cc(C(=O)[*:2])cc(C(=O)[*:3])c1)[*:1]; 2Nal = N[C@@H](Cc1ccc2ccccc2c1)C(=O)O; Dap = NC[C@H](N)C(=O)O; βAla = NCCC(=O)O
# Tests used:
# [1] = system: TNFα-induced NF-κB activation in HEK293(Luc) cells; assay: NF-κB luciferase assay, TNFα-induced; type: cell-based
# [2] = system: A2780 ovarian cancer cells; assay: Live-cell confocal microscopy of cell entry; type: cell-based; conditions: 5 μM FITC-labeled peptide, 2 h
# [3] = molecular target: panel of control proteins; assay: Fluorescence anisotropy; conditions: fluorescently labeled peptide, FA assay
# A375 melanoma cells = assay: Cell viability assay, A375; type: cell-based
# NEMO-IKKβ interaction = NEMO-IKKβ interaction (Homo sapiens, UniProt Q9Y6K9); assay: HTRF assay of inhibition of the NEMO-IKKβ interaction; type: binding; conditions: insertion of Ala N-terminal to the internal Dap, vs peptide 6
# HeLa cells = assay: Flow cytometry analysis of cellular uptake of FITC-labeled peptides; type: cell-based; conditions: relative to CPP1
# [4] = system: basal NF-κB activity in HEK293(Luc) cells; assay: NF-κB luciferase assay, basal; type: cell-based; conditions: absence of TNFα stimulation
# HT29 colon cancer cells = assay: Immunoblot analysis of IKKβ and IκBα levels; type: cell-based
# [5] = system: ovarian surface epithelial cells (OSE); assay: Methylene blue cell viability assay, OSE; type: cell-based; conditions: 72 h
# [6] = 0–25 μM, HT29 cells, TNFα, Western blot
# NEMO-IKKβ interaction, sequence (Q9Y6K9 1-196): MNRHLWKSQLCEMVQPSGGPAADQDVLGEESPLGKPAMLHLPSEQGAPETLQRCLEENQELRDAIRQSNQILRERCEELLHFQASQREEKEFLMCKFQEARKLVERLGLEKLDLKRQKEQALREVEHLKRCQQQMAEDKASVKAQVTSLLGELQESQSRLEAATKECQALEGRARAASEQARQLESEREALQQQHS
Compound,IC50 [1],cell entry (fluorescence) [2],Kd [3],effect on viability (A375 melanoma cells),increase of binding affinity (NEMO-IKKβ interaction),cell permeability (HeLa cells),effect on basal NF-κB activity [4],increase in the basal NF-κB activity [4],TNFα-induced phosphorylation of IKKβ (HT29 colon cancer cells; [6]),total intracellular IKKβ level (HT29 colon cancer cells; [6]),phospho-IKKβ or IκBα level (HT29 colon cancer cells; HT29 cells not stimulated with TNFα),"intracellular level of IκBα (HT29 colon cancer cells; HT29 cells, TNFα, Western blot)",effect on viability [5]
"CC[C@H](C)[C@@H]1NC(=O)[C@H](Cc2c[nH]c3ccccc23)NC(=O)CNC(=O)c2cc3cc(c2)C(=O)NC[C@@H](C(=O)NCCC(=O)NCCC(=O)N[C@@H](CCCCN)C(N)=O)NC(=O)[C@H](CCCNC(=N)N)NC(=O)[C@@H](CCCNC(=N)N)NC(=O)[C@H](CCCNC(=N)N)NC(=O)[C@H](Cc2ccc4ccccc4c2)NC(=O)[C@H](Cc2ccccc2)NC(=O)[C@H](CNC3=O)NC(=O)[C@H](C)NC(=O)[C@H](Cc2ccc(O)cc2)NC1=O [peptide 7, Tm(GWIYA)Δ(FΦRrRΔ)-BBK] (GWIYA[Dap]F[2Nal]R[dR]R[Dap][βAla][βAla]K-NH2; linker N-6-12 via Trimesoyl; C-terminus assumed)",10 µM,intense green fluorescence inside all cells,> 10 µM,reduced the viability,5.9 fold,163%,did not inhibit,~ 1.5 fold,dose-dependently inhibited,unchanged,no effect,increased,no significant effect
"RQIKIWFQNRRMKWKKGGTALDWSWLQTE [peptide 1, reference compound]",~41 µM,,,,,,,,,,,,
